Assay results reported in paper PMC4032197 (Journal of Medicinal Chemistry, 2014).

Key:
[1] = molecular target: T1, human EP2 receptors (Homo sapiens, UniProt P43116); conditions: earlier study; cited from earlier work
[2] = molecular target: T1, human EP2 receptors; conditions: for EP2 potency (in words): tested at 1 μM
[3] = mouse

T1 sequence (P43116 whole entry): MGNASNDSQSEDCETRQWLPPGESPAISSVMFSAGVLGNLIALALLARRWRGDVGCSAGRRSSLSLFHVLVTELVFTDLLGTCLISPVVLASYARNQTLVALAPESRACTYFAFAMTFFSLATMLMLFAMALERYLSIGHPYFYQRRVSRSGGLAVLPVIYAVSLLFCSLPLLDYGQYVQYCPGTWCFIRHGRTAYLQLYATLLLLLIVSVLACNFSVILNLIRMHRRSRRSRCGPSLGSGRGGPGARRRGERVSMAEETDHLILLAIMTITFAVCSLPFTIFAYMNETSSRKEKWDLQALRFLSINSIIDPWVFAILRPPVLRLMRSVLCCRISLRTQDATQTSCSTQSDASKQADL

SMILES | EP2 potency (in words) [2] | fold less EP2 potency in comparison to 5a [2] | other results
COc1cc(/C=C/C(=O)NCCN2CCCCC2C)cc(OC)c1OC (centres unmarked) [6j] |  |  | EP2 activity (in words) [1]: complete loss of activity
COc1ccc(CCNC(=O)CCn2c(C)cc3ccccc32)cc1OC [5u] | killed EP2 potency |  | 
Cc1cc(/C=C/C(=O)NCCn2c(C(F)(F)F)cc3ccccc32)cc(C)c1F [5f] |  |  | fold less EP2 potency in comparison to 5d [2]: 16 fold
COc1cc(C(N)CC(=O)NCCn2c(C)cc3ccccc32)cc(OC)c1OC (centres unmarked) [5w] |  | 180 fold | 
Cc1cc2ccccc2n1CCNC(=O)C1CC1c1ccc(F)cc1 (centres unmarked) [6i] |  | 100 fold | 
COc1cc(/C=C/C(=O)NCCc2c(C)oc3ccccc23)cc(OC)c1OC [5k] |  | 138 fold | 
COc1ccc(/C=C/C(=O)NCCn2c(C(F)(F)F)cc3ccccc32)cc1 [5e] |  |  | fold less EP2 potency in comparison to 5d [2]: 16 fold
COc1ccc(/C=C/C(=O)NCCn2c(C)cc3ccccc32)cc1 [6q] |  | 7 fold | 
COc1cc(/C=C/C(=O)OCCn2c(C)cc3ccccc32)cc(OC)c1OC [6h] |  | about 140 fold | 
Cc1cc2ccccc2n1CCNC(=O)/C=C/c1ccc(OCCO)c(OCCO)c1 [6a, (E)-3-(3,4-Bis(2-hydroxyethoxy)phenyl)-N-(2-(2-methyl-1H-indol-1-yl)ethyl)acrylamide] |  |  | in vivo plasma half-life [3]: more than an hour; brain penetration property ([3]; in vivo): poor
COc1cc(/C=C/C(=O)NCCc2n[nH]c3ccccc23)cc(OC)c1OC [6t] | completely lost EP2 potency |  | 
COC(=O)[C@H](Cc1c(C)[nH]c2ccccc12)NC(=O)/C=C/c1cc(OC)c(OC)c(OC)c1 [5y] | inactive |  | 
COc1cc(/C=C/C(=O)NCc2c(C)[nH]c3ccccc23)cc(OC)c1OC [5s] | complete loss of potency |  | 
